Source: patent US20240300951A1, “Pyrazolopyridinone Compounds” (BeiGene Ltd., priority 2021, published 2024)

Columns and labels:
DGKζ = molecular target: T1, DGKζ (Homo sapiens, UniProt Q13574); assay: Biochemical DGK IC50 assay, DGKζ ADP-Glo assay; conditions: full length DGKζ 0.5 nM, ATP 140 μM, DAG 80 μM
T1 construct: His (N); TEV cleavage site (N); made in house; host or cells: Sf9 insect cells (baculovirus, Bac-to-Bac)
Description: (§1) Enzymatic reactions of DGKζ, DGKα and DGKδ were performed using ADP-Glo assay with lipid micelle substrate. […] Full length DGKα (D21-10BG, SignalChem) and full length DGKδ (D23-10G, SignalChem) were purchased. Lipid micelle was prepared by dissolving DAG (Sigma, 317505-10MG) and PS (Sigma, P7769-100MG) with chloroform which was furtherly removed by rotary evaporation. The resulted product was resuspended in buffer containing 25 mM HEPES pH 7.0, 0.5 mM EDTA and 160 mM Octyl β-D glucopyranoside by vigorous mixing and ultrasonic (IID, Scientz)
(§2) The ranges of compounds final concentration were 1.55-10000 nM or 23.3-150000 nM. 3 μL 2× enzyme solution was added to wells.
Human His-TEV-DGK-zeta-pFastBac1 and human baculovirus samples was generated using the Bac-to-Bac baculovirus expression system (Invitrogen) according to the manufacturer's protocol. The DNA used for expression of DGK-zeta, have SEQ ID Nos: 1. Baculovirus amplification was achieved using infected SF9 cells at 1:2000 virus/cells ratios, and grown for 96 hours at 27° C. post-transfected.
The expression scaled up for each protein was carried out in the […] from CORNING. 4 L of 3×10^6 cells/mL Sf9 cells (Expression System, Invitrogen) grown in SF900™ II SFM insect medium (Expression System) was infected with virus stock at 1:200 virus/cells ratio, and grown for 48 hours at 27° C. post-transfection. The infected cell culture was harvested by centrifugation at 6000 rpm for 15 min 4° C. in a SORVALL LYNX6000 centrifuge. The cell pellets were stored at −80° C.
Full length human DGK produced as described above, was purified from Sf9 baculovirus-infected insect cell paste. The cells were lysed using sonication method, and the lysates were clarified by centrifugation.

DGKα = molecular target: T2, DGKα (Homo sapiens, UniProt P23743); assay: Biochemical DGK IC50 assay, DGKα ADP-Glo assay; conditions: full length DGKα 7.5 nM, ATP 140 μM, DAG 80 μM
T2 construct: Full length DGKα (D21-10BG, SignalChem); purchased SignalChem D21-10BG
Description: as §1, §2

T2 sequence (P23743 whole entry): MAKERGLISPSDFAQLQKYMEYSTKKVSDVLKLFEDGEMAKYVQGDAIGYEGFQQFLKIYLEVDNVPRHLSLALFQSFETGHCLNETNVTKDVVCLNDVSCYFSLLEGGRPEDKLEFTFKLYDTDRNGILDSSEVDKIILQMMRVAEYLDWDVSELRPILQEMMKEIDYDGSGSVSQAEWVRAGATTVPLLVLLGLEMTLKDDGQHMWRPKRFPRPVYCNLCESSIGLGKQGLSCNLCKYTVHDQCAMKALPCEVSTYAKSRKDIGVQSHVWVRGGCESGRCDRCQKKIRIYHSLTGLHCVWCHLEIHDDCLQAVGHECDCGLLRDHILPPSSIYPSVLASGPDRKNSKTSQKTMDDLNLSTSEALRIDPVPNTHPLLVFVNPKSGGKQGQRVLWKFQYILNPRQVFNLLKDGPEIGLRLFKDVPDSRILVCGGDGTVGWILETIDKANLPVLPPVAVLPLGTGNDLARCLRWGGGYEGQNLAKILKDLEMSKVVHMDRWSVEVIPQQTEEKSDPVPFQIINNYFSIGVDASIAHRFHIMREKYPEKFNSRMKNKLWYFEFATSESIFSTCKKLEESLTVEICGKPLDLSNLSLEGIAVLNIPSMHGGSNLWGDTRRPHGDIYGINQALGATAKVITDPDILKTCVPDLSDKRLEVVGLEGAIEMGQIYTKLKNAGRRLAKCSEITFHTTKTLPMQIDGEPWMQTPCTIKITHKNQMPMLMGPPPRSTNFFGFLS
T1 sequence (Q13574 1-929 isoform Q13574-4): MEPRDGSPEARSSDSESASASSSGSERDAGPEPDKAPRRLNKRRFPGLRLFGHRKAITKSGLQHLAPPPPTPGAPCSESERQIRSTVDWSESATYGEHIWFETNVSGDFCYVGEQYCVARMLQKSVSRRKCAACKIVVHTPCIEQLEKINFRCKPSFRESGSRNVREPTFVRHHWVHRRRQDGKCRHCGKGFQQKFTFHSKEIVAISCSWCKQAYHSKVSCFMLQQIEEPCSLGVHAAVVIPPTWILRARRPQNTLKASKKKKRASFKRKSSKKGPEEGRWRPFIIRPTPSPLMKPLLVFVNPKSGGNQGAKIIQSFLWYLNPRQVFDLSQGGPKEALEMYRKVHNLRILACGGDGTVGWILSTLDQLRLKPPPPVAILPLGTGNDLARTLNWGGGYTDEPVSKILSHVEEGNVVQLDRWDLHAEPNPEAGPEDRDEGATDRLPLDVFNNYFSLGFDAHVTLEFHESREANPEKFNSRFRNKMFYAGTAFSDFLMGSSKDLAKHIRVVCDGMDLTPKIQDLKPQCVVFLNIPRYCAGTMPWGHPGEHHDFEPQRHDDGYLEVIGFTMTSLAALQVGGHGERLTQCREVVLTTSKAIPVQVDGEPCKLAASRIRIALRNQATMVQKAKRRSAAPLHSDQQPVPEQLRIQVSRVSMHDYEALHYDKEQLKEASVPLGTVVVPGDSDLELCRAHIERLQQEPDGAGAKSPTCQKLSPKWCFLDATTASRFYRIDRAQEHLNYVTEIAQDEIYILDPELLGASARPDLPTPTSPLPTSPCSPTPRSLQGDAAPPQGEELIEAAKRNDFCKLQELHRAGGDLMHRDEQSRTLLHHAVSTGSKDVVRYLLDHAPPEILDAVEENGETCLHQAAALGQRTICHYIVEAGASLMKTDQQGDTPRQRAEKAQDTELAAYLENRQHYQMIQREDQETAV

For `CC#CCn1cc2c(n1)c(N1C[C@@H](CC)N(C(C)c3ccc(F)cc3C(F)(F)F)C[C@@H]1CC)cc(=O)n2C` (single isomer, unassigned) [Compound A238a], the IC50 (DGKζ) was 2390 nM and the IC50 (DGKα) was > 10000 nM.

In the case of `CC[C@H]1CN(C(C)c2ncccc2OC)[C@H](CC)CN1c1cc(=O)n(C)c2cn(CC#N)nc12` (single isomer, unassigned) [Compound A92b], the IC50 (DGKζ) is reported as 2840 nM.

`Cc1c2c(nn1CC#N)c(N1C[C@@H](C)N(C(C)c3ccc(F)cc3C(F)(F)F)C[C@@H]1C)nc(=O)n2C` (single isomer, unassigned) [Compound A267b] was tested, and the IC50 (DGKζ) was 70 nM and the IC50 (DGKα) was > 150000 nM.

`CC[C@H]1CN(C(C)c2ccc(C(F)F)nc2)[C@H](CC)CN1c1cc(=O)n(C)c2cn(CC#N)nc12` (single isomer, unassigned) [Compound A351b] was tested, and the IC50 (DGKζ) was 3250 nM and the IC50 (DGKα) was 1190 nM.

In the case of `CC[C@H]1CN(C(C)c2ccc(F)cc2C(F)F)[C@H](CC)CN1c1cc(=O)n(C)c2cn(CC#N)nc12` (single isomer, unassigned) [Compound A172a], the IC50 (DGKζ) is reported as 4320 nM and the IC50 (DGKα) is reported as > 10000 nM.

Compound `CC[C@H]1CN(C(C)c2ccc(CN3CCOCC3)cc2)[C@H](CC)CN1c1cc(=O)n(C)c2cn(CC#N)nc12` (single isomer, unassigned) [Compound A383b] has an IC50 (DGKζ) of 4590 nM and an IC50 (DGKα) of 2790 nM.

`CC[C@@H]1CN(c2cc(=O)n(C)c3cn(CC#N)nc23)[C@@H](C)CN1C(C)c1ccc(F)cc1C(F)(F)F` (single isomer, unassigned) [Compound A218a] was tested, and the IC50 (DGKζ) was 166 nM and the IC50 (DGKα) was > 150000 nM.

With `CC[C@H]1CN(C2CCCc3ccccc32)[C@H](CC)CN1c1cc(=O)n(C)c2cn(CC#N)nc12` (single isomer, unassigned) [Compound A146b] the IC50 (DGKζ) was 4690 nM and the IC50 (DGKα) was > 10000 nM.

Work on `CC(c1ccc2c(c1)OC(C)(C)CO2)N1C[C@H](C)N(c2cc(=O)n(C)c3cn(CC#N)nc23)C[C@H]1C` (single isomer, unassigned) [Compound A46d] yielded an IC50 (DGKζ) of 9 nM and an IC50 (DGKα) of 11400 nM.

In the case of `Cc1cnc2ccc([C@H](C)N3C[C@H](C)N(c4cc(=O)n(C)c5cn(CC#N)nc45)C[C@H]3C)cc2n1` (single isomer, unassigned) [Compound A269d], the IC50 (DGKζ) is reported as 21 nM and the IC50 (DGKα) is reported as 51700 nM.

In the case of `CC[C@H]1CN(C(C)c2ccc3nccnc3c2)[C@H](CC)CN1c1cc(=O)n(C(C)C)c2cn(CC#N)nc12` (single isomer, unassigned) [Compound A190a], the IC50 (DGKζ) is reported as 172 nM and the IC50 (DGKα) is reported as > 10000 nM.

For `CC[C@H]1CN(C2CCCc3ccccc32)[C@H](CC)CN1c1cc(=O)n(C)c2cn(CC#N)nc12` (single isomer, unassigned) [Compound A146a], the IC50 (DGKζ) was 283 nM and the IC50 (DGKα) was 440 nM.

In the case of `CC[C@H]1CN(C(C)c2ncccc2OC)[C@H](CC)CN1c1cc(=O)n(C)c2cn(CC#N)nc12` (single isomer, unassigned) [Compound A92a], the IC50 (DGKζ) is reported as > 10000 nM and the IC50 (DGKα) is reported as > 10000 nM.

With `CC[C@H]1CN(C(C)c2nc(Cl)cn2CC)[C@H](CC)CN1c1cc(=O)n(C)c2cn(CC#N)nc12` (single isomer, unassigned) [Compound A191a] the IC50 (DGKζ) was 6780 nM and the IC50 (DGKα) was > 10000 nM.

For `CC[C@H]1CN(C(C)c2ccc3nc(OC)cnc3c2)[C@H](CC)CN1c1cc(=O)n(C)c2cn(CC#N)nc12` (single isomer, unassigned) [Compound A281b], the IC50 (DGKζ) was 1120 nM and the IC50 (DGKα) was 11200 nM.

For `CC[C@H]1CN(C(C)c2ccc3nccnc3c2)[C@H](CC)CN1c1cc(=O)n(C(C)C)c2cn(CC#N)nc12` (single isomer, unassigned) [Compound A190b], the IC50 (DGKζ) was > 10000 nM.

For `COCc1cc(F)ccc1C(C)N1C[C@H](C)N(c2cc(=O)n(C)c3cn(CC#N)nc23)C[C@H]1C` (single isomer, unassigned) [Compound A29a], the IC50 (DGKζ) was 2220 nM and the IC50 (DGKα) was > 10000 nM.

`CC(c1ccc2c(c1)OCC(C)(C)O2)N1C[C@H](C)N(c2cc(=O)n(C)c3cn(CC#N)nc23)C[C@H]1C` (single isomer, unassigned) [Compound A46c] showed an IC50 (DGKζ) of 135 nM and an IC50 (DGKα) of 3340 nM.

In the case of “7-((2S,5R)-4-(1-(1-(2,2-difluoroethyl)-1H-pyrazol-5-yl)ethyl)-2,5-diethylpiperazin-1-yl)-4-methyl-2,4-dihydro-5H-pyrazolo[4,3-b]pyridin-5-one [Compound A228]”, the IC50 (DGKζ) is reported as 9200 nM and the IC50 (DGKα) is reported as > 10000 nM.

Work on `CC(c1ccc2c(c1)OCC(C)(C)O2)N1C[C@H](C)N(c2cc(=O)n(C)c3cn(CC#N)nc23)C[C@H]1C` (single isomer, unassigned) [Compound A46e] yielded an IC50 (DGKζ) of 6160 nM and an IC50 (DGKα) of 26000 nM.

Work on `CC[C@H]1CN(C(C)c2nc(Cl)cn2CC)[C@H](CC)CN1c1cc(=O)n(C)c2cn(CC#N)nc12` (single isomer, unassigned) [Compound A191b] yielded an IC50 (DGKζ) of 1180 nM.

In the case of `CC[C@H]1CN(C2CCOc3ccccc32)[C@H](CC)CN1c1cc(=O)n(C)c2cn(CC#N)nc12` (single isomer, unassigned) [Compound A150b], the IC50 (DGKζ) is reported as 543 nM and the IC50 (DGKα) is reported as 82.5 nM.

In the case of `CC[C@H]1CN(C2CCOc3ccccc32)[C@H](CC)CN1c1cc(=O)n(C)c2cn(CC#N)nc12` (single isomer, unassigned) [Compound A150a], the IC50 (DGKζ) is reported as 2750 nM and the IC50 (DGKα) is reported as 5830 nM.

Work on `CC[C@@H]1CN(c2c(F)c(=O)[nH]c3cn(CC#N)nc23)[C@@H](C)CN1C(C)c1ccc2nccnc2c1` (single isomer, unassigned) [Compound A194b] yielded an IC50 (DGKζ) of 1190 nM and an IC50 (DGKα) of 5090 nM.

`COc1cc(F)ccc1C(C)N1C[C@H](C)N(c2cc(=O)n(C)c3cn(CC#N)nc23)C[C@H]1C` (stereo partly drawn) [Compound A248, 2-(7-((2S,5R)-4-(1-(2-omethoxy-4-fluorophenyl)ethyl)-2,5-dimethylpiperazin-1-yl)-4-methyl-5-oxo-4,5-dihydro-2H-pyrazolo[4,3-b]pyridin-2-yl)acetonitrile] gave an IC50 (DGKζ) of 579 nM.

In the case of `CC[C@H]1CN(C(C)c2ccc(C3CC3)cc2F)[C@H](CC)CN1c1cc(=O)n(C)c2cn(CC#N)nc12` (single isomer, unassigned) [Compound A72b], the IC50 (DGKζ) is reported as 15 nM and the IC50 (DGKα) is reported as 83 nM.

With `CC[C@@H]1CN(c2c(Cl)c(=O)n(C)c3cn(CC#N)nc23)CCN1C(C)c1ccc2nccnc2c1` (single isomer, unassigned) [Compound A162a] the IC50 (DGKζ) was 4480 nM and the IC50 (DGKα) was > 10000 nM.

`CC[C@@H]1CN(c2cc(=O)[nH]c3cn(CC#N)nc23)[C@@H](C)CN1C(C)c1ccc2nccnc2c1` (single isomer, unassigned) [Compound A177b] was tested, and the IC50 (DGKζ) was 3600 nM and the IC50 (DGKα) was > 10000 nM.

In the case of `CC[C@H]1CN(C(C)c2ccc(C3CC3)cc2F)[C@H](CC)CN1c1cc(=O)n(C)c2cn(CC#N)nc12` (single isomer, unassigned) [Compound A72a], the IC50 (DGKζ) is reported as 850 nM and the IC50 (DGKα) is reported as 1200 nM.

With `CC[C@H]1CN(C(C)c2cccc(C)c2C(F)(F)F)[C@H](CC)CN1c1cc(=O)n(C)c2cn(CC#N)nc12` (single isomer, unassigned) [Compound A110a] the IC50 (DGKζ) was 151 nM and the IC50 (DGKα) was 1160 nM.

`CC[C@H]1CN(C(C)c2cccc(C)c2C(F)(F)F)[C@H](CC)CN1c1cc(=O)n(C)c2cn(CC#N)nc12` (single isomer, unassigned) [Compound A110b] showed an IC50 (DGKζ) of 1230 nM and an IC50 (DGKα) of 9030 nM.

`Cc1nc2ccc(C(C)N3C[C@H](C)N(c4cc(=O)n(C)c5cn(CC#N)nc45)C[C@H]3C)cn2n1` (mixture of isomers) [Compound A321] showed an IC50 (DGKζ) of 4020 nM.

In the case of `CCC1CN(c2c(C#N)c(=O)n(C)c3cn(CC#N)nc23)CCN1C(C)c1ccc2nccnc2c1` [Compound A169, 2-(cyanomethyl)-7-((2S,5R)-3-ethyl-4-(1-(quinoxalin-6-yl)ethyl)piperazin-1-yl)-4-methyl-5-oxo-4,5-dihydro-2H-pyrazolo[4,3-b]pyridine-6-carbonitrile], the IC50 (DGKζ) is reported as 701 nM and the IC50 (DGKα) is reported as > 10000 nM.
